Reference: the NIST ThermoML archive (doi:10.1016/j.jct.2006.08.009)
± gives the expanded uncertainty stated by the source.

Test: mn = molality of the nth substance listed, in mol/kg
Conditions: 350 kPa, Liquid; for apparent molar heat capacity: Extra sensitive DSC

O[C@H]1[C@H](O)[C@@H](O)[C@H](O)[C@@H](O)[C@H]1O [cis-1,2,3,5-trans-4,6-cyclohexanehexol] + O
Conditions	apparent molar heat capacity [J/K/mol]	mass density [kg/m3]
278.15 K, m1 = 0.02	255 ± 75	1001.54 ± 0.19
278.15 K, m1 = 0.05	253 ± 30	1004.04 ± 0.19
278.15 K, m1 = 0.0814	256.7 ± 19	–
278.15 K, m1 = 0.1	267.7 ± 16	–
278.15 K, m1 = 0.1028	257.3 ± 16	–
278.15 K, m1 = 0.248	263.1 ± 8.5	1020.11 ± 0.22
278.15 K, m1 = 0.3973	262.1 ± 7.2	1031.74 ± 0.24
278.15 K, m1 = 0.4994	269.8 ± 6.9	1039.85 ± 0.26
283.15 K, m1 = 0.02	287 ± 72	1001.49 ± 0.19
283.15 K, m1 = 0.05	285 ± 28	1003.92 ± 0.19
283.15 K, m1 = 0.0814	292.1 ± 19	–
283.15 K, m1 = 0.1	295.6 ± 16	–
283.15 K, m1 = 0.1028	284.4 ± 15	–
283.15 K, m1 = 0.248	290.5 ± 8.2	1019.58 ± 0.22
283.15 K, m1 = 0.3973	289 ± 6.8	1030.95 ± 0.24
283.15 K, m1 = 0.4994	295.3 ± 6.5	1038.94 ± 0.26
288.15 K, m1 = 0.02	312 ± 67	1000.86 ± 0.19
288.15 K, m1 = 0.05	312 ± 27	1003.27 ± 0.19
288.15 K, m1 = 0.0814	323 ± 18	–
288.15 K, m1 = 0.1	319.7 ± 15	–
288.15 K, m1 = 0.1028	306 ± 15	–
288.15 K, m1 = 0.248	312.7 ± 7.8	1018.73 ± 0.22
288.15 K, m1 = 0.3973	311.2 ± 6.5	1029.97 ± 0.24
288.15 K, m1 = 0.4994	316.4 ± 6.2	1037.9 ± 0.25
293.15 K, m1 = 0.02	332 ± 65	–
293.15 K, m1 = 0.05	332 ± 27	–
293.15 K, m1 = 0.0814	342.6 ± 18	–
293.15 K, m1 = 0.1	339 ± 14	–
293.15 K, m1 = 0.1028	326 ± 14	–
293.15 K, m1 = 0.248	331.5 ± 7.5	–
293.15 K, m1 = 0.3973	329.9 ± 6.3	–
293.15 K, m1 = 0.4994	334.1 ± 6	–
298.15 K, m1 = 0.02	347 ± 62	998.75 ± 0.19
298.15 K, m1 = 0.05	348 ± 25	1001.13 ± 0.18
298.15 K, m1 = 0.0814	358.6 ± 17	1003.66 ± 0.18
298.15 K, m1 = 0.1	354.4 ± 14	–
298.15 K, m1 = 0.1028	343.7 ± 13	–
298.15 K, m1 = 0.248	347.5 ± 7.2	1016.29 ± 0.21
298.15 K, m1 = 0.3973	345.6 ± 6	1027.32 ± 0.23
298.15 K, m1 = 0.4994	349.1 ± 5.8	1035.14 ± 0.25
303.15 K, m1 = 0.02	362 ± 58	–
303.15 K, m1 = 0.05	362.7 ± 24	–
303.15 K, m1 = 0.0814	371.2 ± 16	–
303.15 K, m1 = 0.1	367.4 ± 13	–
303.15 K, m1 = 0.1028	358.9 ± 13	–
303.15 K, m1 = 0.248	361.3 ± 7	–
303.15 K, m1 = 0.3973	359 ± 5.8	–
303.15 K, m1 = 0.4994	361.9 ± 5.6	–
308.15 K, m1 = 0.02	374 ± 57	995.69 ± 0.19
308.15 K, m1 = 0.05	374.4 ± 23	998.05 ± 0.18
308.15 K, m1 = 0.0814	381.2 ± 15	1000.51 ± 0.18
308.15 K, m1 = 0.1	378.5 ± 12	1001.45 ± 0.33
308.15 K, m1 = 0.1028	371.6 ± 12	1001.99 ± 0.2
308.15 K, m1 = 0.248	373.2 ± 6.7	1012.97 ± 0.2
308.15 K, m1 = 0.3973	370.4 ± 5.6	1023.83 ± 0.23
308.15 K, m1 = 0.4994	373 ± 5.5	1031.55 ± 0.24
313.15 K, m1 = 0.02	386 ± 54	–
313.15 K, m1 = 0.05	385.5 ± 22	–
313.15 K, m1 = 0.0814	390.4 ± 14	–
313.15 K, m1 = 0.1	388.5 ± 12	–
313.15 K, m1 = 0.1028	382.8 ± 12	–
313.15 K, m1 = 0.248	383.6 ± 6.5	–
313.15 K, m1 = 0.3973	380.5 ± 5.6	–
313.15 K, m1 = 0.4994	382.7 ± 5.3	–
318.15 K, m1 = 0.02	395 ± 51	991.86 ± 0.2
318.15 K, m1 = 0.05	394.7 ± 21	994.19 ± 0.19
318.15 K, m1 = 0.0814	398.6 ± 14	996.61 ± 0.18
318.15 K, m1 = 0.1	397.3 ± 12	997.52 ± 0.32
318.15 K, m1 = 0.1028	392.5 ± 11	998.07 ± 0.2
318.15 K, m1 = 0.248	392.7 ± 6.4	1008.92 ± 0.2
318.15 K, m1 = 0.3973	389.4 ± 5.5	1019.64 ± 0.22
318.15 K, m1 = 0.4994	391.3 ± 5.3	1027.27 ± 0.23
323.15 K, m1 = 0.02	403 ± 50	–
323.15 K, m1 = 0.05	402.6 ± 20	–
323.15 K, m1 = 0.0814	405.9 ± 13	–
323.15 K, m1 = 0.1	405 ± 11	–
323.15 K, m1 = 0.1028	401 ± 11	–
323.15 K, m1 = 0.248	400.7 ± 6.2	–
323.15 K, m1 = 0.3973	397.3 ± 5.3	–
323.15 K, m1 = 0.4994	398.9 ± 5.1	–
328.15 K, m1 = 0.02	410 ± 47	987.32 ± 0.21
328.15 K, m1 = 0.05	409.6 ± 20	989.63 ± 0.2
328.15 K, m1 = 0.0814	412.6 ± 13	992.01 ± 0.19
328.15 K, m1 = 0.1	411.7 ± 11	992.93 ± 0.32
328.15 K, m1 = 0.1028	408.3 ± 11	993.47 ± 0.22
328.15 K, m1 = 0.248	407.8 ± 6.1	1004.2 ± 0.19
328.15 K, m1 = 0.3973	404.3 ± 5.3	1014.83 ± 0.21
328.15 K, m1 = 0.4994	405.6 ± 5.1	1022.36 ± 0.22
333.15 K, m1 = 0.02	416 ± 46	–
333.15 K, m1 = 0.05	415.7 ± 19	–
333.15 K, m1 = 0.0814	418.7 ± 13	–
333.15 K, m1 = 0.1	417.8 ± 10	–
333.15 K, m1 = 0.1028	414.9 ± 10	–
333.15 K, m1 = 0.248	414.1 ± 6.1	–
333.15 K, m1 = 0.3973	410.5 ± 5.1	–
333.15 K, m1 = 0.4994	411.6 ± 5	–
338.15 K, m1 = 0.02	421 ± 43	982.18 ± 0.22
338.15 K, m1 = 0.05	421.5 ± 18	984.47 ± 0.21
338.15 K, m1 = 0.0814	424.1 ± 12	986.82 ± 0.2
338.15 K, m1 = 0.1	423.2 ± 10	987.73 ± 0.32
338.15 K, m1 = 0.1028	420.6 ± 10	988.27 ± 0.23
338.15 K, m1 = 0.248	419.6 ± 5.9	998.91 ± 0.18
338.15 K, m1 = 0.3973	416.1 ± 5.1	1009.45 ± 0.2
338.15 K, m1 = 0.4994	416.9 ± 5	1016.94 ± 0.21
343.15 K, m1 = 0.02	427 ± 42	–
343.15 K, m1 = 0.05	426.7 ± 17	–
343.15 K, m1 = 0.0814	429 ± 12	–
343.15 K, m1 = 0.1	427.9 ± 10	–
343.15 K, m1 = 0.1028	425.9 ± 9.7	–
343.15 K, m1 = 0.248	424.6 ± 5.8	–
343.15 K, m1 = 0.3973	421 ± 5.2	–
343.15 K, m1 = 0.4994	421.6 ± 5	–
348.15 K, m1 = 0.02	430.7 ± 41	976.46 ± 0.23
348.15 K, m1 = 0.05	431.2 ± 17	978.72 ± 0.22
348.15 K, m1 = 0.0814	433.3 ± 12	981.07 ± 0.22
348.15 K, m1 = 0.1	431.9 ± 9.8	981.98 ± 0.32
348.15 K, m1 = 0.1028	430.3 ± 9.5	982.51 ± 0.24
348.15 K, m1 = 0.248	428.9 ± 5.8	993.1 ± 0.19
348.15 K, m1 = 0.3973	425.2 ± 5	1003.55 ± 0.19
348.15 K, m1 = 0.4994	425.8 ± 4.8	1010.99 ± 0.2
353.15 K, m1 = 0.02	435.4 ± 40	–
353.15 K, m1 = 0.05	435.4 ± 16	–
353.15 K, m1 = 0.0814	437.2 ± 11	–
353.15 K, m1 = 0.1	435.3 ± 9.5	–
353.15 K, m1 = 0.1028	434.1 ± 9.4	–
353.15 K, m1 = 0.248	432.5 ± 5.8	–
353.15 K, m1 = 0.3973	428.9 ± 5	–
353.15 K, m1 = 0.4994	429.3 ± 4.8	–
358.15 K, m1 = 0.02	439.4 ± 40	970.24 ± 0.24
358.15 K, m1 = 0.05	439 ± 16	972.5 ± 0.24
358.15 K, m1 = 0.0814	440.6 ± 11	974.84 ± 0.23
358.15 K, m1 = 0.1	438.3 ± 9.3	975.72 ± 0.32
358.15 K, m1 = 0.1028	437.2 ± 9.2	976.24 ± 0.25
358.15 K, m1 = 0.248	435.7 ± 5.7	986.78 ± 0.21
358.15 K, m1 = 0.3973	432 ± 5	997.2 ± 0.19
358.15 K, m1 = 0.4994	432.4 ± 4.8	–
363.15 K, m1 = 0.02	442.2 ± 40	–
363.15 K, m1 = 0.05	441.7 ± 16	–
363.15 K, m1 = 0.0814	443.4 ± 11	–
363.15 K, m1 = 0.1	440.5 ± 9.2	–
363.15 K, m1 = 0.1028	439.4 ± 9.1	–
363.15 K, m1 = 0.248	438.2 ± 5.7	–
363.15 K, m1 = 0.3973	434.6 ± 5	–
363.15 K, m1 = 0.4994	434.8 ± 4.8	–
368.15 K, m1 = 0.02	–	963.51 ± 0.25
368.15 K, m1 = 0.05	–	965.76 ± 0.25
368.15 K, m1 = 0.0814	–	968.11 ± 0.24
368.15 K, m1 = 0.1	–	969.08 ± 0.27
368.15 K, m1 = 0.1028	–	969.48 ± 0.27
368.15 K, m1 = 0.248	–	980 ± 0.22
368.15 K, m1 = 0.3973	–	990.36 ± 0.2
368.15 K, m1 = 0.4994	–	997.73 ± 0.19
